Experimental data: patent US10669269B2, “Substituted N-(1H-indazol-4-yl)imidazo[1,2-a]pyridine-3-carboxamide compounds as type III receptor tyrosine kinase inhibitors” (ARRAY BIOPHARMA INC., priority 2010, dated 2020)
Structures can show the parent of a compound that is named as a salt.

Experiments:
[1] = biological target: T1, PDGFR beta (Homo sapiens, UniProt P09619); experiment: Phospho PDGFR LICOR Cell Assay (Example B); type: cell-based; details: averaged IC50; PDGFR beta phosphorylation in HS27 human fibroblast cell line, PDGF-BB stimulation 10 minutes, normalized to total ERK
T1 construct: endogenous in cells; host or cells: HS27 human fibroblast cell line
Description: Compounds were screened for inhibition of PDGFR beta phosphorylation in the HS27 human fibroblast cell line. Cells were seeded into a 96 well tissue culture plate, then incubated overnight in a 37° C./5% CO2 incubator. The following day, cells were treated for one hour with test compound dilutions. After stimulation with PDGF-BB ligand for 10 minutes, cells were washed with PBS and fixed in 3.7% formaldehyde in PBS for 10 minutes. This was followed by washing in PBS/0.2% Triton X-100 and permeabilizing in 100% MeOH for 10 minutes. Cells were incubated in blocking buffer for 1 hour. Antibodies to phosphorylated PDGFRβ and total ERK were added to the cells and incubated for 3 hours. After washing with PBS/0.2% Triton X-100, the cells were incubated with fluorescently-labeled secondary antibodies for an additional hour. Cells were then washed with PBS and analyzed for fluorescence at both wavelengths using the Odyssey Infrared Imaging System (LI-COR Biosciences). Phosphorylated PDGFR signal was normalized to total ERK signal. A standard 4-parameter logistic model was fit to the inhibitor dose response curves, with the IC50 being defined as the concentration of inhibitor giving 50 percent of control (POC).

[2] = biological target: T2, cFMS (Homo sapiens, UniProt P07333); experiment: cFMS Cell-Based Assay (Example C); details: averaged IC50; phospho-cFMS in THP-1 cells stimulated with 250 ng/mL recombinant human MCSF; read-out: cFMS Cell ELISA IC50
T2 construct: THP-1 cells (human acute monocytic leukemia cell line) were serum-starved for 4 hours; endogenous in cells; host or cells: THP-1 cells (human acute monocytic leukemia cell line)
Description: The ability of compounds of Formula I to inhibit cFMS activation in cells was determined by the following assay. THP-1 cells (human acute monocytic leukemia cell line) were serum-starved for 4 hours prior to treatment with compounds of Formula I for 1 hour. The concentration of compounds of Formula I was varied over a 9-point, 3-fold dilution series with 5,000 nM typically being the highest dose. Cell culture and treatment were carried out in a humidified 37° C., 5% CO2 incubator. Treated cells were stimulated with 250 ng/mL recombinant human MCSF for 1 minute to induce activation of cFMS. Cells were lysed in a manner which preserves phosphoproteins, and the lysate was analyzed by ELISA (R&D Systems, Human Phospho-M-CSF R DuoSet IC DYC3268), in which total cFMS protein in the lysate is captured and phosphotyrosine residues of cFMS are detected. A standard curve, made using purified phospho-M-CSF R protein, was used to quantify phospho-c-FMS in compound-treated wells. A standard 4-parameter logistic model was fit to the inhibitor dose response curves, with the IC50 being defined as the concentration of inhibitor giving 50 percent of control (POC).

[3] = biological target: T3, c-KIT (Homo sapiens, UniProt P10721); experiment: c-KIT Cell-Based Assay (Example D); details: averaged IC50; phospho-c-KIT in M-07e cells stimulated with 150 ng/ml recombinant human SCF; read-out: cKIT Cell ELISA IC50
T3 construct: M-07e cells (human acute megakaryoblastic leukemia cell line) were serum-starved for 4 hours; endogenous in cells; host or cells: M-07e cells (human acute megakaryoblastic leukemia cell line)
Description: The ability of compounds of Formula I to inhibit c-KIT activation in cells was determined by the following assay. M-07e cells (human acute megakaryoblastic leukemia cell line) were serum-starved for 4 hours prior to treatment with compounds of Formula I for 1 hour. The concentration of compounds of Formula I was varied over a 9-point, 3-fold dilution series with 5,000 nM typically being the highest dose. Cell culture and treatment were carried out in a humidified 37° C., 5% CO2 incubator. Treated cells were stimulated with 150 ng/ml recombinant human SCF for 4 minutes to induce activation of c-KIT. Cells were lysed in a manner which preserves phosphoproteins, and the lysate was analyzed by ELISA (R&D Systems, Human Phospho-SCF R DuoSet IC DYC3527), in which total c-KIT protein in the lysate is captured and phosphotyrosine residues of c-Kit are detected. A standard curve, made using purified phospho-SCF R protein, was used to quantify phospho-c-KIT in compound-treated wells. A standard 4-parameter logistic model was fit to the inhibitor dose response curves, with the IC50 being defined as the concentration of inhibitor giving 50 percent of control (POC).

T2 sequence (P07333 20-972): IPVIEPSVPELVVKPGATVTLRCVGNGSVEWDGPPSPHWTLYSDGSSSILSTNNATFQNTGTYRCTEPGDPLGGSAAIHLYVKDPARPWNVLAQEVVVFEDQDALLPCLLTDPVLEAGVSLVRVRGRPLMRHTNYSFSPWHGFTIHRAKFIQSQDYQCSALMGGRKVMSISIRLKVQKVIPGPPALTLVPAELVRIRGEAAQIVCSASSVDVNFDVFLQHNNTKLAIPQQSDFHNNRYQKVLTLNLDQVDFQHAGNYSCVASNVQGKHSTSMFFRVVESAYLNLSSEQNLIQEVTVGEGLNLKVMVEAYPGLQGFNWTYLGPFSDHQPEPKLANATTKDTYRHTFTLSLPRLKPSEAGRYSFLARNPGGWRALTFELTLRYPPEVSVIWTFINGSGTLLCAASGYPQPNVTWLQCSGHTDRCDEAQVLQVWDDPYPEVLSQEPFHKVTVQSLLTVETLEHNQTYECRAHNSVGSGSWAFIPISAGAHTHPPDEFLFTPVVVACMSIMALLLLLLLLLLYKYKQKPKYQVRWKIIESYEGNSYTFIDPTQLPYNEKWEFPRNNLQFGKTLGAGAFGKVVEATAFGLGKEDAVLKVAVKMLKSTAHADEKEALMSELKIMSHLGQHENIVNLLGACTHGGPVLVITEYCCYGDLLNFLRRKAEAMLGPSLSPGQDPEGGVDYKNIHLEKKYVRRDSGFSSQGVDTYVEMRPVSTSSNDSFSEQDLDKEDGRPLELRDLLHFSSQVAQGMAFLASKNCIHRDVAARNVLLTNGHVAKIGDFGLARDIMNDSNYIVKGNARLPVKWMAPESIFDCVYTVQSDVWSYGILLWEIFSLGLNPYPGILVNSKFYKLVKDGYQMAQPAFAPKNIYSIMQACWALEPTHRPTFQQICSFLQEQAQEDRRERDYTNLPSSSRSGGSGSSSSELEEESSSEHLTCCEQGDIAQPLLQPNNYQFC
T3 sequence (P10721 26-976): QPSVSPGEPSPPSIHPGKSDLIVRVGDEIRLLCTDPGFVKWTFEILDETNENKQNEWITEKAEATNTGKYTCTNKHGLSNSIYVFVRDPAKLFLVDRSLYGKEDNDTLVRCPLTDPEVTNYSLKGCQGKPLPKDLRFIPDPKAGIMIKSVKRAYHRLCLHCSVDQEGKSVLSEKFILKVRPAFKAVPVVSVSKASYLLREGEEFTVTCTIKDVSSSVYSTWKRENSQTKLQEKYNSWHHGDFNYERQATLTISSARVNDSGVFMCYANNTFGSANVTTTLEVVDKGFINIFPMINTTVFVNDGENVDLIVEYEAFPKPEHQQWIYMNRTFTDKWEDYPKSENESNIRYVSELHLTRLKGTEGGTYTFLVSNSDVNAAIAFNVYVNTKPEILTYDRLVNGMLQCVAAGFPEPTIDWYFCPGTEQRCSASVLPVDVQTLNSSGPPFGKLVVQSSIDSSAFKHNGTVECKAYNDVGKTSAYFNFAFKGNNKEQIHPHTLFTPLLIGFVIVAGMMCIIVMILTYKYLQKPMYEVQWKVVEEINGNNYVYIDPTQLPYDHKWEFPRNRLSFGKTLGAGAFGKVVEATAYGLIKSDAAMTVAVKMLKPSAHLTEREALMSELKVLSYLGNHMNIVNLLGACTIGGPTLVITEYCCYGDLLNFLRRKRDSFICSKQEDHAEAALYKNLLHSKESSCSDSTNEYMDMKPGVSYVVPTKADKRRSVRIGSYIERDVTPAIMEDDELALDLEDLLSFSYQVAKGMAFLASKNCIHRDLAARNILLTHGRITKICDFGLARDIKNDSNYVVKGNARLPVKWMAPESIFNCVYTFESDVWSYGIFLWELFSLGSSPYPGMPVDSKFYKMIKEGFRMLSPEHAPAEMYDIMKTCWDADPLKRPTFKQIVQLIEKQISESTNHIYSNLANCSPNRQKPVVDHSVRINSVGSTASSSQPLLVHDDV
T1 sequence (P09619 33-1106): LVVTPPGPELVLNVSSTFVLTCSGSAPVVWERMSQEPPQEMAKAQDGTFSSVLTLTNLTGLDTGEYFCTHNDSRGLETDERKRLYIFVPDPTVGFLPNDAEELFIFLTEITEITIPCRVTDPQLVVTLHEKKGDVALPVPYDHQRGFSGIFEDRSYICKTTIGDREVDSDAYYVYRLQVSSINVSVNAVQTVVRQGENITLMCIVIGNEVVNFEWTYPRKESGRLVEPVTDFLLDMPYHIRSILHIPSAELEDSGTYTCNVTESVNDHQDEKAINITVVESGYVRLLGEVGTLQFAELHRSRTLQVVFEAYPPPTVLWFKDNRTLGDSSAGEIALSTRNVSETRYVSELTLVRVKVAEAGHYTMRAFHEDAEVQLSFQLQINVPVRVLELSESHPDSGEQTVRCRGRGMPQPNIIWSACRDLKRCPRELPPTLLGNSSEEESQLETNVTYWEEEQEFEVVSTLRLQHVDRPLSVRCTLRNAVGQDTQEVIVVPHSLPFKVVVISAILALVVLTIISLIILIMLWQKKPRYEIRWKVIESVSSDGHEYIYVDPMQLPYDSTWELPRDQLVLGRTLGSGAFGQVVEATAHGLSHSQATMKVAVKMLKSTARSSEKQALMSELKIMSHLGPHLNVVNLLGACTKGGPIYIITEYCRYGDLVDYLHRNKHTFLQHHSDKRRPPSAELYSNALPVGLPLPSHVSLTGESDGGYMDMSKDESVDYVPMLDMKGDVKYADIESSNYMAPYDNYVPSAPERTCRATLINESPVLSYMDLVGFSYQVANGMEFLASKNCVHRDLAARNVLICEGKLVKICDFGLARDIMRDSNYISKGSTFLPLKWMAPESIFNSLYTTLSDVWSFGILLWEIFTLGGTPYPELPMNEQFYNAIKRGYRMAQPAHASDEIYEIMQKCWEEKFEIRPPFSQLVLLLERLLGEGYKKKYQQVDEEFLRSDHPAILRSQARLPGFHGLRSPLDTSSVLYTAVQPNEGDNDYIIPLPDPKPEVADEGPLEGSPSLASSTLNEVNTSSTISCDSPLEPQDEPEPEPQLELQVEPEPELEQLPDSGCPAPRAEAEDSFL

| SMILES | IC50 [1] | IC50 [2] | IC50 [3] |
| --- | --- | --- | --- |
| Cc1nn(Cc2cc(C)n(C(C)C)n2)c2cccc(NC(=O)c3cnc4cc(OCCN5CC6(CN(C)C6)C5)ccn34)c12 [Example 8, N-(1-((1-Isopropyl-5-methyl-1H-pyrazol-3-yl)methyl)-3-methyl-1H-indazol-4-yl)-7-(2-(6-methyl-2,6-diazaspiro[3.3]heptan-2-yl)ethoxy)imidazo[1,2-a]pyridine-3-carboxamide] | 32.6 nM | 33.6 nM | 122 nM |
| Cc1nn(Cc2cc(C)n(C(C)C)n2)c2cccc(NC(=O)c3cnc4cc(OCCN5C[C@@H](C)N(C)[C@@H](C)C5)ccn34)c12 [Example 9, N-(1-((1-isopropyl-5-methyl-1H-pyrazol-3-yl)methyl)-3-methyl-1H-indazol-4-yl)-7-(2-((3S,5R)-3,4,5-trimethylpiperazin-1-yl)ethoxy)imidazo[1,2-a]pyridine-3-carboxamide] | 166 nM | 21.2 nM | 143 nM |
| Cc1nn(Cc2cc(C)n(C(C)C)n2)c2cccc(NC(=O)c3cnc4cc(OCCN5CCN(C(C)C)CC5)ccn34)c12 [Example 10, N-(1-((1-Isopropyl-5-methyl-1H-pyrazol-3-yl)methyl)-3-methyl-1H-indazol-4-yl)-7-(2-(4-isopropylpiperazin-1-yl)ethoxy)imidazo[1,2-a]pyridine-3-carboxamide] | 40.8 nM | 25.3 nM | 141 nM |
| Cc1nn(Cc2cc(C)n(C(C)C)n2)c2cccc(NC(=O)c3cnc4cc(OCCN5CCCN(C)CC5)ccn34)c12 [Example 11, N-(1-((1-isopropyl-5-methyl-1H-pyrazol-3-yl)methyl)-3-methyl-1H-indazol-4-yl)-7-(2-(4-methyl-1,4-diazepan-1-yl)ethoxy)imidazo[1,2-a]pyridine-3-carboxamide] | 46.5 nM | 26.2 nM | 157 nM |
| Cc1nn(Cc2csc(C(C)C)n2)c2cccc(NC(=O)c3cnc4cc(OCCN5CCN(C)CC5)ccn34)c12 [Example 12, N-(1-((2-isopropylthiazol-4-yl)methyl)-3-methyl-1H-indazol-4-yl)-7-(2-(4-methylpiperazin-1-yl)ethoxy)imidazo[1,2-a]pyridine-3-carboxamide] | 44 nM | 11.4 nM | 50.4 nM |
| Cc1nn(Cc2csc(C(C)C)n2)c2cccc(NC(=O)c3cnc4cc(OCCN5CC6(CN(C)C6)C5)ccn34)c12 [Example 13, N-(1-((2-isopropylthiazol-4-yl)methyl)-3-methyl-1H-indazol-4-yl)-7-(2-(6-methyl-2,6-diazaspiro[3.3]heptan-2-yl)ethoxy)imidazo[1,2-a]pyridine-3-carboxamide] | 11.3 nM | 12.9 nM | 76.3 nM |
| Cc1nn(Cc2csc(C(C)C)n2)c2cccc(NC(=O)c3cnc4cc(OCCN5CCN(C(C)C)CC5)ccn34)c12 [Example 15, 7-(2-(4-isopropylpiperazin-1-yl)ethoxy)-N-(1-((2-isopropylthiazol-4-yl)methyl)-3-methyl-1H-indazol-4-yl)imidazo[1,2-a]pyridine-3-carboxamide] | 46.2 nM | 12 nM | 60.6 nM |
| Cc1nn(Cc2cc(C)n(C(C)C)n2)c2cccc(NC(=O)c3cnc4cc(OCCN5CCN(C)[C@@H](C)C5)ccn34)c12 [Example 29, (S)-7-(2-(3,4-dimethylpiperazin-1-yl)ethoxy)-N-(1-((1-isopropyl-5-methyl-1H-pyrazol-3-yl)methyl)-3-methyl-1H-indazol-4-yl)imidazo[1,2-a]pyridine-3-carboxamide] | 44.1 nM | 28.6 nM | 162 nM |

The remaining lines, values ahead:

| IC50 [1] | IC50 [2] | IC50 [3] | SMILES |
| --- | --- | --- | --- |
| 17.4 nM | 17.6 nM | 65.3 nM | Cc1nn(Cc2csc(C(C)C)n2)c2cccc(NC(=O)c3cnc4cc(OCCN5CCN(C)[C@@H](C)C5)ccn34)c12 [Example 30, (S)-7-(2-(3,4-dimethylpiperazin-1-yl)ethoxy)-N-(1-((2-isopropylthiazol-4-yl)methyl)-3-methyl-1H-indazol-4-yl)imidazo[1,2-a]pyridine-3-carboxamide] |
| 47.7 nM | 13.3 nM | 45.1 nM | Cc1nn(Cc2ccn(C(C)C)n2)c2cccc(NC(=O)c3cnc4cc(OCCN5CCN(C)CC5)ccn34)c12 [Example 48, N-(1-((1-isopropyl-1H-pyrazol-3-yl)methyl)-3-methyl-1H-indazol-4-yl)-7-(2-(4-methylpiperazin-1-yl)ethoxy)imidazo[1,2-a]pyridine-3-carboxamide bis hydrochloride] |
| 9.7 nM | 11.8 nM | 53.5 nM | Cc1nn(Cc2ccn(C(C)C)n2)c2cccc(NC(=O)c3cnc4cc(OCCN5CCN(C(C)C)CC5)ccn34)c12 [Example 49, N-(1-((1-isopropyl-1H-pyrazol-3-yl)methyl)-3-methyl-1H-indazol-4-yl)-7-(2-(4-isopropylpiperazin-1-yl)ethoxy)imidazo[1,2-a]pyridine-3-carboxamide] |
|  | 5.8 nM |  | Cc1ccc(-c2ccn3c(C(=O)Nc4cccc5c4c(C)nn5Cc4cccc(C)n4)cnc3c2)cn1 [Example 50, N-(3-methyl-1-((6-methylpyridin-2-yl)methyl)-1H-indazol-4-yl)-7-(6-methylpyridin-3-yl)imidazo[1,2-a]pyridine-3-carboxamide di-hydrochloride] |
| 305 nM | 40.1 nM |  | Cc1cccc(Cn2nc(C)c3c(NC(=O)c4cnc5cc(OCCN6CCCC6)ccn45)cccc32)n1 [Example 55, N-(3-methyl-1-((6-methylpyridin-2-yl)methyl)-1H-indazol-4-yl)-7-(2-(pyrrolidin-1-yl)ethoxy)imidazo[1,2-a]pyridine-3-carboxamide dihydrochloride] |
|  | 8.2 nM |  | Cc1cccc(Cn2nc(C)c3c(NC(=O)c4cnc5cc(-c6c(C)n[nH]c6C)ccn45)cccc32)n1 [Example 69, 7-(3,5-dimethyl-1H-pyrazol-4-yl)-N-(3-methyl-1-((6-methylpyridin-2-yl)methyl)-1H-indazol-4-yl)imidazo[1,2-a]pyridine-3-carboxamide] |
|  | 79.5 nM |  | COCCNCCc1ccn2c(C(=O)Nc3cccc4c3c(C)nn4Cc3cccc(C)n3)cnc2c1 [Example 74, 7-(2-(2-methoxyethylamino)ethyl)-N-(3-methyl-1-((6-methylpyridin-2-yl)methyl)-1H-indazol-4-yl)imidazo[1,2-a]pyridine-3-carboxamide] |
|  | 131 nM |  | O=C(Nc1cccc2c1cnn2CC1CCCCO1)c1cnc2ccccn12 (stereo not shown) [Example 128, N-(1-((tetrahydro-2H-pyran-2-yl)methyl)-1H-indazol-4-yl)imidazo[1,2-a]pyridine-3-carboxamide] |
| 114 nM | 442 nM |  | COCCOc1ccn2c(C(=O)Nc3cccc4c3cnn4Cc3cccc(O)c3)cnc2c1 [Example 130, N-(1-(3-hydroxybenzyl)-1H-indazol-4-yl)-7-(2-methoxyethoxy)imidazo[1,2-a]pyridine-3-carboxamide] |
| 1000 nM | 99.1 nM |  | COCCOc1ccn2c(C(=O)Nc3cccc4c3cnn4-c3ccccc3)cnc2c1 [Example 133, 7-(2-Methoxyethoxy)-N-(1-phenyl-1H-indazol-4-yl)imidazo[1,2-a]pyridine-3-carboxamide] |
